Data taken from publication PMC5974403, “The novel histone de acetylase 6 inhibitor, MPT0G211, ameliorates tau phosphorylation and cognitive deficits in an Alzheimer’s disease model” (Cell Death & Disease, 2018).
“Also recorded” adds a separate entry of the source. Like-named read-outs stand apart in the source and are kept apart here.

What was measured:
[1] = BBB crossing assay: brain and plasma concentrations by LC-MS/MS after oral administration; type: in vivo, rat; conditions: rats
Protocol: Successful crossing of the BBB by therapeutic drugs is essential in the treatment of CNS disorders. To explore whether MPT0G211 can penetrate into the brain, single oral administration of MPT0G211 was performed, and plasma and brain samples were collected and analyzed by liquid chromatography tandem mass spectrometry (LC-MS/MS) to obtain brain/plasma ratios.
This assay was performed by Eurofins Scientific. Briefly, SD rats weighing 200–300 g were provided by BioLasco Taiwan (under the license of Charles River Laboratories). Rats were sedated under general inhalant anesthesia (3% isoflurane) for blood collection using cardiac puncture 60 and 180 min after oral administration of the test compound. Aliquots of blood were gently mixed with lithium heparin, kept on ice, and centrifuged at 2500 × g for 15 min at 4 °C. The plasma was then harvested and stored at −70 °C. After blood sampling, rats were decapitated, and the entire brain was quickly removed and rinsed with cold saline (0.9% NaCl, w/v). The surface vasculature was ruptured, blotted with dry gauze, weighed, and stored on ice within 1 h of collection. Each brain was homogenized in 3 mL cold PBS, pH 7.4, for 10 s on ice, and centrifuged at 5400 × g for 15 min at 4 °C. Supernatants were precipitated using acetonitrile precipitation and subjected to high-performance LC-MS/MS.

[2] = system: 3×Tg-AD mice; test: Immunohistochemistry and western blot of brain (hippocampal CA1) of 3×Tg-AD mice; type: in vivo, mouse; conditions: 3×Tg-AD mice, 50, 100 mg/kg oral, 3 months
Excerpt: Red arrowheads indicate phosphorylated-tau proteins. Scale bar = 25 μm. Data represent the mean ± SEM. *p < 0.05, **p < 0.01, and ***p < 0.001 compared with the basal or control group; ^#p < 0.05, ^##p < 0.01, and ^###p < 0.001 compared with the vehicle-treated group

[3] = system: SH-SY5Y cells; test: Aβ1–40-induced tau phosphorylation, western blot; type: cell-based, human; conditions: Aβ1–40 10 μM 24 h, then 0.1 μM for 24 h
Protocol: (§1) Cell lysates were prepared for western blot analysis of the indicated proteins. Results are presented as the mean ± SEM. *p < 0.05, **p < 0.01, and ***p < 0.001 compared with the control group; ^#p < 0.05, ^##p < 0.01, ^###p < 0.001 compared with the indicated groups
Cells (1 × 10^6) were incubated for 10 min at 4 °C in lysis buffer (20 mM HEPES, pH 7.4, 2 mM EGTA, 50 mM β-glycerophosphate, 0.1% Triton X-100, 10% glycerol, 1 mM dithiothreitol, 1 μg/mL leupeptin, 5 μg/mL aprotinin, 1 mM phenylmethylsulfonyl fluoride, and 1 mM sodium orthovanadate), scraped from the plate, incubated on ice for 10 min, and centrifuged at 17,000 × g for 30 min at 4 °C. Protein samples (30 μg) were electrophoresed through sodium dodecyl sulfate-polyacrylamide gels (SDS-PAGE) and transferred onto a nitrocellulose membrane, which was then blocked by incubation for 30 min at room temperature with 5% fat-free milk in PBS. Immunoblotting was performed by overnight incubation at 4 °C with primary antibodies in PBS, followed by incubation for 1 h at room temperature with HRP-conjugated secondary antibodies. Bound antibodies were measured using ECL reagent (T-Pro Biotechnology, New Taipei City, Taiwan), and the membrane was placed on a photographic film. Cell lysates (30 μg) were incubated with antibodies (1 μg each) and protein A/G agarose beads overnight at 4 °C. […]

[4] = system: Neuro-2a cells; test: Western blot of tau phosphorylation and kinases in Neuro-2a cells transfected with pCAX APP 695 and pRK5-EGFP-Tau P301L; type: cell-based, mouse; conditions: 0.1 μM, 24 h
Protocol: Images represented magnification at ×100. b Cells were transfected with pCAX APP 695 for 24 h, harvested, and cell lysates were subjected to Western blotting. c, d SH-SY5Y and Neuro-2a cells were transfected with pCAX APP 695 and/or pRK5-EGFP-Tau P301L for 24 h. Cell lysates were prepared for western blot analysis of the indicated proteins. e, f Cells were transfected with pCAX APP 695 and pRK5-EGFP-Tau P301L for 24 h and were then incubated with or without MPT0G211 or ACY-1215 (0.1 μM) for another 24 h. Cell lysates were subjected to western blot analysis using the indicated antibodies. Results are presented as the mean ± SEM from three independent experiments. **p < 0.01, ***p < 0.001 compared with the control group; ^#p < 0.05, ^##p < 0.01 compared with the indicated groups
as §1
Cells were seeded 1 day before transfection. The plasmids pCAX FLAG APP and pRK5-EGFP-Tau P301L (1 μg each) and 1 μL of TurboFect transfection reagent were mixed for 20 min at room temperature, added to the cells, and the suspensions were incubated for 24 h at 37 °C in a humidified atmosphere containing 5% CO2.
(§2) Cells (1 × 10^6) were incubated for 10 min at 4 °C in lysis buffer (20 mM HEPES, pH 7.4, 2 mM EGTA, 50 mM β-glycerophosphate, 0.1% Triton X-100, 10% glycerol, 1 mM dithiothreitol, 1 μg/mL leupeptin, 5 μg/mL aprotinin, 1 mM phenylmethylsulfonyl fluoride, and 1 mM sodium orthovanadate), scraped from the plate, incubated on ice for 10 min, and centrifuged at 17,000 × g for 30 min at 4 °C. Protein samples (30 μg) were electrophoresed through sodium dodecyl sulfate-polyacrylamide gels (SDS-PAGE) and transferred onto a nitrocellulose membrane, which was then blocked by incubation for 30 min at room temperature with 5% fat-free milk in PBS. Immunoblotting was performed by overnight incubation at 4 °C with primary antibodies in PBS, followed by incubation for 1 h at room temperature with HRP-conjugated secondary antibodies. Bound antibodies were measured using ECL reagent (T-Pro Biotechnology, New Taipei City, Taiwan), and the membrane was placed on a photographic film. Cell lysates (30 μg) were incubated with antibodies (1 μg each) and protein A/G agarose beads overnight at 4 °C. The precipitated beads were washed three times with 1 mL of ice-cold cell lysis buffer, and bound immune complexes were separated using 8% SDS-PAGE, followed by immunoblotting using the indicated primary antibody.

[5] = Elevated plus maze; set-up: species or system rat; conditions: AD in vivo models; stated in introduction only
Protocol: The plus maze consisted of two open and two closed arms, connected by a central platform. Animals were individually placed at the end of either of the open arms facing away from the central platform. The time for each rat to move from the open arm to either of the closed arms was recorded. […] These experiments were performed in accordance with relevant ethics guidelines and regulations, which were reviewed and approved by the Animal Use and Management Committee of the College of Medicine, National Taiwan University (IACUC number: 20130361).

[6] = system: SH-SY5Y cells; test: Western blot of acetyl-α-tubulin and acetyl-histone, SH-SY5Y cells; type: cell-based, human; conditions: 0.1 to 1 μM, 24 h
Protocol: Cell viabilities were determined by MTT assay. The results represent the mean ± SEM of three independent experiments; *p < 0.05, **p < 0.01 and ***p < 0.001 compared with controls TEXT PRINTED IN THE PICTURE: (A) no label printed: M.W. 293.32
as §2

Work on `O=C(NO)c1ccc(CNc2cccc3cccnc23)cc1` [MPT0G211, N-hydroxy-4-((quinolin-8-ylamino)methyl)benzamide] yielded a Kp at 3 h ([1]; SD, rat, brain/plasma, PO 50 mg/kg, 3 h, read-out: Brain/plasma ratio) of 0.9, a concentration at 1 h ([1]; SD, rat, brain, PO 50 mg/kg, 1 h, read-out: Brain concentration) of 56.9 ± 3.4 ng/g and a concentration at 3 h ([1]; SD, rat, brain, PO 50 mg/kg, 3 h, read-out: Brain concentration) of 11 ± 0.1 ng/g. It also gave a Kp at 1 h ([1]; SD, rat, in vivo, PO 50 mg/kg, 1 h, read-out: Brain/plasma ratio) of 1.01, a concentration at 1 h ([1]; SD, rat, plasma, PO 50 mg/kg, 1 h, read-out: Plasma concentration) of 56.4 ± 4 ng/g and a concentration at 3 h ([1]; SD, rat, plasma, PO 50 mg/kg, 3 h, read-out: Plasma concentration) of 12.2 ± 1.4 ng/g. For the same molecule, the BBB penetration ([1]; single oral administration) was “can penetrate the BBB”, the “time for which concentrations were detected in the brain” value ([1]; single oral administration) was “at least 3 h” and the “acetyl-α-tubulin accumulation in brain” value [2] was “increased”. The “p-Tau (S396) expression in brain” value ([2]; hippocampal CA1) was “significantly downregulated”, the “p-Tau (S404) expression in brain” value ([2]; hippocampal CA1) was “significantly downregulated” and the “GSK3β activity and Aβ1–40-induced tau phosphorylation” value [3] was “diminished”. The “phosphorylation of tau Ser396” value ([4]; Neuro-2a transfected hAPP 695 + hTau P301L) was “significantly inhibited; also recorded: significantly attenuated”, the “CDK5, p25, or p35 expression” value ([4]; Neuro-2a transfected) was “no marked changes” and the “phospho-GSK3β on Ser9” value ([4]; Neuro-2a transfected) was “significant phospho-GSK3β increases”. For the same molecule, the “phospho-GSK3β on Ser216” value ([4]; Neuro-2a transfected) was “a decrease”, the “phosphorylation of tau Ser404” value ([4]; Neuro-2a transfected) was “significantly attenuated” and the “time spent in finding the closed arm (elevated plus maze) and platform (Morris water maze)” value [5] was “reduced the time spent by animals in finding the platform and closed arm”. For the same molecule, the acetylation of histones [6] was “without affecting the acetylation of histones” and the “acetylation of α-tubulin” value [6] was “concentration-dependently increased”.
